In patent US8008355B2, “Endosomolytic poly(vinyl ether) polymers” (Roche Madison Inc., priority 2002, dated 2011):

Legend:
[1] = amines with electron withdrawing groups; cited from earlier work
[2] = Rate of cleavage of linkages; type: physicochemical

SMILES | pKa [1] | rate of cleavage, slower than an SMTP linkage (Compound XI) [2] [×]
N#CCN [Polymer H2NCH2CN, H2NCH2CN] | 5.34 | 
CC1CCC(=N)S1 (stereo not shown) [Linkage X, 5-methyl-2-iminothiolane] |  | 4
CCN(CC)CCC#N [(C2H5)2N(CH2)2CN] | 7.65 | 
CCN(CCC#N)CCC#N [C2H5N(CH2CH2CN)2] | 4.55 | 
